Test results: patent publication US20240351997A1, “NOVEL PARP7 INHIBITOR AND USE THEREOF” (SHANGHAI QILU PHARMACEUTICAL RESEARCH AND DEVELOPMENT …, priority 2021, published 2024)

Tests used:
[1] = molecular target: PARP7 (Homo sapiens (Human), UniProt Q7Z3E1); assay: In vitro enzymology experiment of PARP7 (enzymatic inhibition); type: biochemical
Outline: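 Histone-coated plate ADP-ribosylation format: compound preincubated 10 min at room temperature with preincubated (25 °C, 10 min) enzyme mixture; incorporated biotin detected by streptavidin-HRP and QuantaRed fluorescence (Ex550/Em620).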

[2] = In vivo pharmacokinetic assay in mice (intravenous injection and oral administration); settings: C57BL/6 mice
Description: (§1) III. In Vivo Pharmacokinetic Assay in Mice and Rats
(§2) The pharmacokinetic behavior of the compound of the present disclosure in plasma after a single intravenous injection and oral administration was studied using male C57BL/6 mice or SD male rats as experimental animals.
(§3) Healthy adult C57BL/6 mice or SD rats (3 mice or rats per group), male, supplied by Shanghai Jihui Laboratory Animal Care Co., Ltd. and Vital River Laboratory Animal Technology Co., Ltd.
(§4) Both the intravenous injection and oral administration groups consisted of 3 mice or rats. The intravenous injection was at a dose of 1 mg/kg and in a volume of 5 mL/kg; the oral administration was at a dose of 5 mg/kg and in a volume of 10 mL/kg. The vehicle for administration was 5% DMSO/5% Kolliphor HS 15/90% Saline.
(§5) 2.3 Experimental Equipment
(§6) The centrifuge was purchased from Eppendorf, and the pipette was purchased from Eppendorf.
(§7) After the animals were administered, 0.02 mL of blood was collected from the vein at 0.0833 (IV), 0.25, 0.5, 1, 2, 4, 8, and 24 hours, respectively, placed in an EDTA-K2 test tube, centrifuged at 4600 rpm for 5 minutes at 4° C. to separate the plasma, and stored at −80° C.
(§8) 1) 10 μL of plasma sample was precipitated by adding 200 μL of acetonitrile, vortexed to mix, and centrifuged for 15 minutes.
(§9) 2) The treated supernatant was diluted with water, and the concentration of the test compound was analyzed by LC/MS/MS.
(§10) • Liquid phase conditions: Shimadzu LC-30AD • Mass spectrometry conditions: AB Sciex API 5500 • Chromatographic column: Phenomenex Kinetex 2.6 μm C18 • Mobile phases: A: 5 mM ammonium acetate aqueous solution (containing 0.05% formic acid); B: acetonitrile (containing 0.1% formic acid); flow rate: 0.5 mL/min
(§11) 3. Experimental Results and Analysis
(§12) Pharmacokinetic parameters were calculated using WinNonlin 8.0, and the pharmacokinetic parameters for intravenous injection and oral administration in mice or rats are shown in Table 2 and Table 3 below: […]

[3] = In vivo pharmacokinetic assay in rats (intravenous injection and oral administration); settings: SD rats; for AUC / clearance / half-life / Vd / Cmax: male, rat, plasma; for Vd: read-out: Vss
Description: as §1, §2, §3, §4, §5, §6, §7, §8, §9, §10, §11, §12

[4] = male, mouse, plasma, intravenous injection, 1 mg/kg
[5] = male, mouse, plasma, oral administration, 5 mg/kg

PARP7, sequence (Q7Z3E1 whole entry): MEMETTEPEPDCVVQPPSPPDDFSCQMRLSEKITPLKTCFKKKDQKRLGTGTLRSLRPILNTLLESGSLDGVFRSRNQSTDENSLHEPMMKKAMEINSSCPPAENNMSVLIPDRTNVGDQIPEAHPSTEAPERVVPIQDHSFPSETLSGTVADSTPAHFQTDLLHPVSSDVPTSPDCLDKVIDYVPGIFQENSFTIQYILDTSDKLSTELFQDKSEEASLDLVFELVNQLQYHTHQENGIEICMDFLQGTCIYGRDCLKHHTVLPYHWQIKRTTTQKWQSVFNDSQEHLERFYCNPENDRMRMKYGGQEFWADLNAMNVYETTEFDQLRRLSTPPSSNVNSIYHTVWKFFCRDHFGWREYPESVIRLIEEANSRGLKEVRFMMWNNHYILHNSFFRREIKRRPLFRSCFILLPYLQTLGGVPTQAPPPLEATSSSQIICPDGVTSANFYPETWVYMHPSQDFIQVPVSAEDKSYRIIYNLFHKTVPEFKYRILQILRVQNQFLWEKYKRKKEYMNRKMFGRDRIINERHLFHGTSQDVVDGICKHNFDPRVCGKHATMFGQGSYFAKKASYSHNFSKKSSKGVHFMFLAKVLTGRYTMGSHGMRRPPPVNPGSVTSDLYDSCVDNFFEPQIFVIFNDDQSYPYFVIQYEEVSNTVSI

Q: Which results are given for C[C@@H](Cc1c[nH]c(=O)c(C(F)(F)F)c1)OC(=O)N1CCN(c2ncc(C(F)(F)F)cn2)CC1 (single isomer, unassigned) [Example 35]?
A: IC50 [1]: 0.53 nM; F ([2]; oral administration, 5 mg/kg): 52%; AUC [2, 4]: 2570 ng·h/mL; clearance [2, 4]: 6.67 mL/min/kg; half-life [2, 4]: 4.2 h; Vd ([2]; male, mouse, plasma, intravenous injection, 1 mg/kg, read-out: Vss): 1.5 L/kg; AUC [2, 5]: 6760 ng·h/mL; Cmax [2, 5]: 3750 ng/mL; F ([3]; oral administration, 5 mg/kg): 35%; AUC ([3]; intravenous injection, 1 mg/kg): 633 ng·h/mL; clearance ([3]; intravenous injection, 1 mg/kg): 28.3 mL/min/kg; half-life ([3]; intravenous injection, 1 mg/kg): 3.5 h; Vd ([3]; intravenous injection, 1 mg/kg): 3.3 L/kg; AUC ([3]; oral administration, 5 mg/kg): 1060 ng·h/mL; Cmax ([3]; oral administration, 5 mg/kg): 434 ng/mL

Q: Which results are given for C[C@@H](Cc1c[nH]c(=O)c(C(F)(F)F)c1)OC(=O)N1CCN(c2ncc(C(F)(F)F)cn2)[C@@H](C)C1 [Example 93, (S)-1-(6-Oxo-5-(trifluoromethyl)-1,6-dihydropyridin-3-yl)propan-2-yl (S)-3-methyl-4-(5-(trifluoromethyl)pyrimidin-2-yl)piperazine-1-carboxylate]?
A: IC50 [1]: 0.78 nM; F ([3]; oral administration, 5 mg/kg): 77%; AUC ([3]; intravenous injection, 1 mg/kg): 978 ng·h/mL; clearance ([3]; intravenous injection, 1 mg/kg): 16.7 mL/min/kg; half-life ([3]; intravenous injection, 1 mg/kg): 1.9 h; Vd ([3]; intravenous injection, 1 mg/kg): 1.9 L/kg; AUC ([3]; oral administration, 5 mg/kg): 3830 ng·h/mL; Cmax ([3]; oral administration, 5 mg/kg): 809 ng/mL

Q: Which IC50 [1] does the source give for Cc1cnc(N2[C@H](C)CN(C(=O)OCCc3c[nH]c(=O)c(C(F)(F)F)c3)C[C@@H]2C)nc1 [Example 165, 2-(6-Oxo-5-(trifluoromethyl)-1,6-dihydropyridin-3-yl)ethyl (3S,5R)-3,5-dimethyl-4-(5-methylpyrimidin-2-yl)piperazine-1-carboxylate] here?
A: 1 nM

Q: With Cc1cnc(N2C[C@H](C)N(C(=O)OCCc3c[nH]c(=O)c(C(F)(F)F)c3)C[C@H]2C)nc1 [Example 166, 2-(6-Oxo-5-(trifluoromethyl)-1,6-dihydropyridin-3-yl)ethyl (2S,5R)-2,5-dimethyl-4-(5-methylpyrimidin-2-yl)piperazine-1-carboxylate] as the compound, how does the IC50 [1] read?
A: 0.65 nM

Q: With Cc1cnc(N2C[C@@H](C)N(C(=O)OCCc3c[nH]c(=O)c(C(F)(F)F)c3)C[C@@H]2C)nc1 [Example 168, 2-(6-Oxo-5-(trifluoromethyl)-1,6-dihydropyridin-3-yl)ethyl (2R,5S)-2,5-dimethyl-4-(5-methylpyrimidin-2-yl)piperazine-1-carboxylate] as the compound, how does the IC50 [1] read?
A: 0.9 nM

Q: With Cc1cnc(N2C[C@@H](C)N(C(=O)O[C@@H](C)Cc3c[nH]c(=O)c(C(F)(F)F)c3)C[C@H]2C)nc1 [Example 169, (S)-1-(6-Oxo-5-(trifluoromethyl)-1,6-dihydropyridin-3-yl)propan-2-yl (2R,5R)-2,5-dimethyl-4-(5-methylpyrimidin-2-yl)piperazine-1-carboxylate] as the compound, how does the IC50 [1] read?
A: 0.7 nM

Q: Which IC50 [1] does the source give for Cc1cnc(N2C[C@H](C)N(C(=O)O[C@@H](C)Cc3c[nH]c(=O)c(C(F)(F)F)c3)C[C@H]2C)nc1 [Example 170, (S)-1-(6-Oxo-5-(trifluoromethyl)-1,6-dihydropyridin-3-yl)propan-2-yl (2S,5R)-2,5-dimethyl-4-(5-methylpyrimidin-2-yl)piperazine-1-carboxylate] here?
A: 0.87 nM

Q: With Cc1cnc(N2C[C@H](C)N(C(=O)O[C@@H](C)Cc3c[nH]c(=O)c(C(F)(F)F)c3)[C@@H](C)C2)nc1 [Example 171, (S)-1-(6-Oxo-5-(trifluoromethyl)-1,6-dihydropyridin-3-yl)propan-2-yl (2S,6S)-2,6-dimethyl-4-(5-methylpyrimidin-2-yl)piperazine-1-carboxylate] as the compound, how does the IC50 [1] read?
A: 1.4 nM

Q: With Cc1cnc(N2C[C@@H](C)N(C(=O)O[C@@H](C)Cc3c[nH]c(=O)c(C(F)(F)F)c3)C[C@@H]2C)nc1 [Example 172, (S)-1-(6-Oxo-5-(trifluoromethyl)-1,6-dihydropyridin-3-yl)propan-2-yl (2R,5S)-2,5-dimethyl-4-(5-methylpyrimidin-2-yl)piperazine-1-carboxylate] as the compound, how does the IC50 [1] read?
A: 0.84 nM

Q: Which IC50 [1] does the source give for C[C@@H]1CN(c2ncc(C3CC3)cn2)[C@@H](C)CN1C(=O)O[C@@H](C)Cc1c[nH]c(=O)c(C(F)(F)F)c1 [Example 173, (S)-1-(6-Oxo-5-(trifluoromethyl)-1,6-dihydropyridin-3-yl)propan-2-yl (2R,5S)-4-(5-cyclopropylpyrimidin-2-yl)-2,5-dimethylpiperazine-1-carboxylate] here?
A: 0.74 nM

Q: With C[C@@H]1CN(c2ncc(C3CC3)cn2)C[C@H](C)N1C(=O)O[C@@H](C)Cc1c[nH]c(=O)c(C(F)(F)F)c1 [Example 174, (S)-1-(6-Oxo-5-(trifluoromethyl)-1,6-dihydropyridin-3-yl)propan-2-yl (2R,6S)-4-(5-cyclopropylpyrimidin-2-yl)-2,6-dimethylpiperazine-1-carboxylate] as the compound, how does the IC50 [1] read?
A: 1.3 nM

Q: Which IC50 [1] does the source give for C[C@@H]1CN(c2ncc(C3CC3)cn2)C[C@@H](C)N1C(=O)O[C@@H](C)Cc1c[nH]c(=O)c(C(F)(F)F)c1 [Example 175, (S)-1-(6-Oxo-5-(trifluoromethyl)-1,6-dihydropyridin-3-yl)propan-2-yl (2R,6R)-4-(5-cyclopropylpyrimidin-2-yl)-2,6-dimethylpiperazine-1-carboxylate] here?
A: 0.76 nM

Q: With C[C@@H](Cc1c[nH]c(=O)c(C(F)(F)F)c1)OC(=O)N1CCN(c2ncc(C3CC3)cn2)CC1 [Example 176, (S)-1-(6-Oxo-5-(trifluoromethyl)-1,6-dihydropyridin-3-yl)propan-2-yl 4-(5-cyclopropylpyrimidin-2-yl)piperazine-1-carboxylate] as the compound, how does the IC50 [1] read?
A: 1.7 nM

Q: For C[C@@H](Cc1c[nH]c(=O)c(C(F)(F)F)c1)OC(=O)N1[C@@H](C)CN(c2ncc(C3CC3)cn2)C[C@@H]1C [Example 177, (S)-1-(6-Oxo-5-(trifluoromethyl)-1,6-dihydropyridin-3-yl)propan-2-yl (2S,6S)-4-(5-cyclopropylpyrimidin-2-yl)-2,6-dimethylpiperazine-1-carboxylate], which IC50 [1] is on record?
A: 0.78 nM

Q: With C[C@@H]1CN(C(=O)O[C@@H](C)Cc2c[nH]c(=O)c(C(F)(F)F)c2)[C@@H](C)CN1c1ncc(C2CC2)cn1 [Example 178, (S)-1-(6-Oxo-5-(trifluoromethyl)-1,6-dihydropyridin-3-yl)propan-2-yl (2S,5R)-4-(5-cyclopropylpyrimidin-2-yl)-2,5-dimethylpiperazine-1-carboxylate] as the compound, how does the IC50 [1] read?
A: 1.4 nM

Q: For C[C@@H]1CN(c2ncc(C3CC3)cn2)[C@H](C)CN1C(=O)O[C@@H](C)Cc1c[nH]c(=O)c(C(F)(F)F)c1 [Example 179, (S)-1-(6-Oxo-5-(trifluoromethyl)-1,6-dihydropyridin-3-yl)propan-2-yl (2R,5R)-4-(5-cyclopropylpyrimidin-2-yl)-2,5-dimethylpiperazine-1-carboxylate], which IC50 [1] is on record?
A: 1 nM

Q: With C[C@@H]1CN(C(=O)OCCc2c[nH]c(=O)c(C(F)(F)F)c2)C[C@H](C)N1c1ncc(C2CC2)cn1 [Example 181, 2-(6-Oxo-5-(trifluoromethyl)-1,6-dihydropyridin-3-yl)ethyl (3S,5R)-4-(5-cyclopropylpyrimidin-2-yl)-3,5-dimethylpiperazine-1-carboxylate] as the compound, how does the IC50 [1] read?
A: 1.3 nM

Q: For C[C@H]1CN(c2ncc(C3CC3)cn2)C[C@H](C)N1C(=O)OCCc1c[nH]c(=O)c(C(F)(F)F)c1 [Example 182, 2-(6-Oxo-5-(trifluoromethyl)-1,6-dihydropyridin-3-yl)ethyl (2S,6S)-4-(5-cyclopropylpyrimidin-2-yl)-2,6-dimethylpiperazine-1-carboxylate], which IC50 [1] is on record?
A: 5.5 nM

Q: Which IC50 [1] does the source give for C[C@@H]1CN(C(=O)OCCc2c[nH]c(=O)c(C(F)(F)F)c2)[C@@H](C)CN1c1ncc(C2CC2)cn1 [Example 183, 2-(6-Oxo-5-(trifluoromethyl)-1,6-dihydropyridin-3-yl)ethyl (2S,5R)-4-(5-cyclopropylpyrimidin-2-yl)-2,5-dimethylpiperazine-1-carboxylate] here?
A: 1 nM

Q: With C[C@@H]1CN(c2ncc(C3CC3)cn2)[C@@H](C)CN1C(=O)OCCc1c[nH]c(=O)c(C(F)(F)F)c1 [Example 184, 2-(6-Oxo-5-(trifluoromethyl)-1,6-dihydropyridin-3-yl)ethyl (2R,5S)-4-(5-cyclopropylpyrimidin-2-yl)-2,5-dimethylpiperazine-1-carboxylate] as the compound, how does the IC50 [1] read?
A: 1.2 nM
